From patent US12338203B2 (TAISHO PHARMACEUTICAL CO., LTD., priority 2019, dated 2025)

These compounds were tested against T1, human LPAR1 (Homo sapiens, UniProt Q92633) (assay: Test Example 1: antagonism against response of LPA-induced increase in intracellular Ca2+ concentration in RH7777 cells stably expressing human LPAR1). Settings: RH7777 cells stably expressing human LPAR1; Fluo-4 fluorescence, FDSS6000; read-out: IC50 value (concentration producing 50% antagonism against response of LPA-induced increase in intracellular Ca2+ concentration) (converted).
T1 construct: expressed in transfected cells
T1 sequence (Q92633 whole entry): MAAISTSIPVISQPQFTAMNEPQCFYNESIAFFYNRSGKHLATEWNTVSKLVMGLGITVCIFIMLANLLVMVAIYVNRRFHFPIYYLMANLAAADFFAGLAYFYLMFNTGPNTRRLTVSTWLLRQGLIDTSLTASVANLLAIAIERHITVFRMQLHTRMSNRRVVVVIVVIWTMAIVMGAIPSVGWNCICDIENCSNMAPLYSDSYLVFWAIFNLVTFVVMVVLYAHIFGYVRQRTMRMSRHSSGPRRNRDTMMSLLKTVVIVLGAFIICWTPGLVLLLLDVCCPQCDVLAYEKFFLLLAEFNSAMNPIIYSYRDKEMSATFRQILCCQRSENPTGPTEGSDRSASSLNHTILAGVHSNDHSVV
Type: cell-based
How it was run: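 RH7777 cells stably transfected with human LPAR1 were preincubated with test compound 30 min at 37 °C in HBSS/20 mM HEPES/probenecid/0.05% BSA buffer, pH 7.4, then LPA-stimulated.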

Row | SMILES | IC50 [nM]
1 | CCOc1cc([C@@H](C)N(CCCCc2ccccc2)C(=O)NC2(C(=O)O)CC2)cc(OCC)c1C1CC1 [Example 1-18] | 1.09
2 | CCOc1cc([C@@H](C)N(CCCCc2ccccc2)C(=O)NC2CCC(C(=O)O)C2)cc(OCC)c1C(C)=O (stereo partly drawn) [Example 1-141] | 42.9
3 | CCOc1c(C(C)=O)ccc([C@@H](C)N(CCCCc2ccccc2)C(=O)NC2(C(=O)O)CC(OC)C2)c1C (stereo partly drawn) [Example 1-94] | 11.8
4 | CCOc1cc([C@@H](C)N(CCCCc2ccccc2)C(=O)NC2(C(=O)O)CC(OC)C2)cc(OCC)c1C(C)O (single isomer, unassigned) [Example 1-89] | 2.21
5 | CCOc1cc(C(C)N(CCCCc2ccccc2)C(=O)NC2CCC2C(=O)O)cc(OCC)c1C(C)=O (stereo not drawn) [Example 1-125] | 3.09
6 | CCOc1cc(C(C)N(CCCCc2ccccc2)C(=O)NC2(C(=O)O)CC(F)(F)C2)cc(OCC(F)(F)F)c1C (stereo not drawn) [Example 1-63] | 10.9
7 | CCOc1cc([C@@H](C)N(CCCCc2ccccc2)C(=O)NC2(C(=O)O)CCN(C(C)=O)CC2)cc(OCC)c1C [Example 1-160] | 11.9
8 | CCOc1cc(C(C)N(CCCCc2ccccc2)C(=O)NC2(C(=O)O)Cc3ccccc3C2)cc(OCC)c1C (stereo not drawn) [Example 1-122] | 12.7
9 | CCOc1cc([C@@H](C)N(CCCCc2ccccc2)C(=O)NC2(C(=O)O)CC3(CCC3)C2)cc(OCC)c1C [Example 1-121] | 9.23
10 | CCOc1cc([C@@H](C)N(CCCCc2ccccc2)C(=O)NC2(C(=O)O)CCCC2)cc(OCC)c1C [Example 1-113] | 4.09
11 | CCOc1cc([C@@H](C)N(CCCCc2ccccc2)C(=O)NC2(C(=O)O)CCCCC2)cc(OCC)c1C [Example 1-118] | 42.8
12 | CCOc1c(C(C)O)ccc([C@@H](C)N(CCCCc2ccccc2)C(=O)NC2(C(=O)O)CC(F)(F)C2)c1C (stereo partly drawn) [Example 1-77, 1-{[{(1R)-1-[3-Ethoxy-4-(1-Hydroxyethyl)-2-Methylphenyl]Ethyl}(4-Phenylbutyl) Carbamoyl]Amino}-3,3-Difluorocyclobutane-1-Carboxylic Acid] | 3.12
13 | CCOc1cc(C(C)N(CCCCc2ccccc2)C(=O)NC2(C(=O)O)CC(F)(F)C2)cc(OCC)c1CO (stereo not drawn) [Example 1-50, 1-{[{1-[3,5-Diethoxy-4-(Hydroxymethyl)Phenyl]Ethyl}(4-Phenylbutyl) Carbamoyl]Amino}-3,3-Difluorocyclobutane-1-Carboxylic Acid] | 3.68
14 | CCOc1cc([C@@H](C)N(CCCCc2ccccc2)C(=O)NC2(C(=O)O)Cc3ccccc3C2)cc(OCC)c1C [Example 1-123, 2-({[(1R)-1-(3,5-Diethoxy-4-Methylphenyl)Ethyl](4-Phenylbutyl) Carbamoyl}Amino)-2,3-Dihydro-1H-Indene-2-Carboxylic Acid] | 12.7
15 | CCOc1cc([C@@H](C)N(CCCCc2ccccc2)C(=O)N[C@]2(C(=O)O)C[C@@H](OC)C2)cc(OCC)c1C(C)=O [Example 1-86, Trans-1-({[(1R)-1-(4-Acetyl-3,5-Diethoxyphenyl)Ethyl](4-Phenylbutyl) Carbamoyl}Amino)-3-Methoxycyclobutane-1-Carboxylic Acid] | 2.33
16 | CCOc1cc(CN(CCCCc2ccccc2)C(=O)NC2(C(=O)O)CCCC2)cc(OCC)c1C [Example 3-2] | 85.8
17 | CCOc1cc([C@@H](C)N(CCCCc2ccccc2)C(=O)NC2(C(=O)O)CC(OC)C2)cc(OCC)c1C(C)O (single isomer, unassigned) [Example 1-88] | 3.35
18 | CCOc1cc([C@@H](C)N(CCCCc2ccccc2)C(=O)NC2CCC(C(=O)O)C2)cc(OCC)c1C (stereo partly drawn) [Example 1-142] | 49.2
19 | CCOc1c(C(C)=O)ccc([C@@H](C)N(CCCCc2ccccc2)C(=O)NC2(C(=O)O)CCOCC2)c1C [Example 1-156] | 3.68

More lines, now with the values ahead:

Row | IC50 [nM] | SMILES
20 | 88.3 | CCOc1cc(C(C)N(CCCCc2ccccc2)C(=O)NC2(C(=O)NS(C)(=O)=O)CCCC2)cc(OCC)c1C (stereo not drawn) [Example 7-3]
21 | 5.59 | O=C(NC1(C(=O)O)CC(F)(F)C1)N(CCCCc1ccccc1)C1COc2c(Cl)cc(Cl)cc21 (stereo not drawn) [Example 5-117]
22 | 2.31 | CCOc1cc([C@@H](C)N(CCO[C@@H](C)c2ccccc2)C(=O)N[C@]2(C(=O)O)C[C@@H](OC)C2)c(Cl)c(OCC)c1C(C)=O [Example 5-28]
23 | 4.93 | COc1cc(C(C)N(CCOCc2ccccc2)C(=O)NC2(C(=O)O)CCOCC2)c(Cl)c(OC)c1C1CC1 (stereo not drawn) [Example 5-175]
24 | 5.48 | CCOc1cc([C@@H](C)N(CCCOc2ccccc2)C(=O)NC2(C(=O)O)CC(F)(F)C2)cc(OCC)c1C [Example 4-98]
25 | 2.08 | CCOc1cc(C(C)N(CCO[C@@H](C)c2ccccc2)C(=O)NC2(C(=O)O)CC(OCC)C2)c(Cl)c(OCC)c1C(C)=O (stereo partly drawn) [Example 5-223]
26 | 1.65 | CCOc1cc(C(C)N(CCO[C@@H](C)c2ccccc2)C(=O)NC2(C(=O)O)CC(OCC)C2)c(C)c(OCC)c1C1CC1 (stereo partly drawn) [Example 5-217]
27 | 1.97 | CCOc1cc([C@@H](C)N(CCC(F)(F)Cc2ccccc2)C(=O)N[C@]2(C(=O)O)C[C@@H](OC)C2)cc(OCC)c1C1CC1 [Example 4-91]
28 | 2.51 | CCOc1cc([C@@H](C)N(CCO[C@@H](C)c2ccccc2)C(=O)NC2(C(=O)O)CC(OC)C2)c(C)c(OCC)c1C(C)=O (stereo partly drawn) [Example 5-71]
29 | 6.91 | CCOc1cc([C@@H](C)N(CCCc2ccc(F)cc2)C(=O)NC2(C(=O)O)CC(F)(F)C2)cc(OCC)c1C [Example 4-5]
30 | 4520 | O=C(NC1(C(=O)O)CCCC1)N(CCCCc1ccccc1)Cc1cccc(Cl)c1 [Example 5-2]
31 | 31 | CCOc1cc([C@@H](C)N(CCC(F)(F)Cc2ccccc2)C(=O)NC2(C(=O)O)CCOCC2)c(Cl)c(OCC)c1C(C)O (stereo partly drawn) [Example 5-68, 4-{[{(1R)-1-[2-Chloro-3,5-Diethoxy-4-(1-Hydroxyethyl)Phenyl]Ethyl}(3,3-Difluoro-4-Phenylbutyl) Carbamoyl]Amino}Oxane-4-Carboxylic Acid]
32 | 8.01 | CCOc1cc([C@@H](C)N(CCO[C@@H](C)c2ccccc2)C(=O)N[C@]2(C(=O)O)C[C@H](OC)C2)c(Cl)c(OCC)c1C(C)O (single isomer, unassigned) [Example 5-59]
33 | 2.75 | CCOc1cc([C@@H](C)N(CCCCc2ccccc2)C(=O)NC2(C(=O)NS(C)(=O)=O)CC(F)(F)C2)cc(OCC)c1C(C)=O [Example 7-1, 1-({[(1R)-1-(4-Acetyl-3,5-Diethoxyphenyl)Ethyl](4-Phenylbutyl) Carbamoyl}Amino)-3,3-Difluoro-N-(Methanesulfonyl)Cyclobutane-1-Carboxamide]
34 | 4.33 | COc1cc([C@@H](C)N(CCOCc2ccccc2)C(=O)NC2(C(=O)O)CC(OC)C2)c(Cl)c(OC)c1C(C)=O (stereo partly drawn) [Example 5-123]
35 | 8.18 | COc1cc(C(C)N(CCO[C@@H](C)c2ccccc2)C(=O)NC2(C(=O)O)CCC2)cc(OC)c1C1CC1 (stereo partly drawn) [Example 5-137]
36 | 2.48 | CCOc1cc(C(C)N(CCCCc2ccccc2)C(=O)NC(C)(C)c2nn[nH]n2)cc(OCC)c1C(C)=O (stereo not drawn) [Example 10-2]
37 | 2.58 | COc1cc(C(C)N(CCO[C@@H](C)c2ccccc2)C(=O)NC2(C(=O)O)CC(F)(F)C2)c(Cl)c(OC)c1C1CC1 (stereo partly drawn) [Example 5-149]

Row | IC50 [nM] | SMILES
38 | 3.54 | COc1cc(C(C)N(CCOC(C)c2ccccc2)C(=O)NC2(C(=O)O)CC(OC)C2)cc(OC)c1C1CC1 (stereo not drawn) [Example 5-157]
39 | 6.66 | CCOc1c(C(C)=O)ccc([C@@H](C)N(CCO[C@@H](C)c2ccccc2)C(=O)NC2(C(=O)O)CC(OC)C2)c1C (stereo partly drawn) [Example 4-130]
40 | 3.11 | COc1cc(C(C)N(CCOCc2ccccc2)C(=O)NC2(C(=O)O)CC(F)(F)C2)c(Cl)c(OC)c1C(C)=O (stereo not drawn) [Example 5-143]
41 | 1.11 | CCOc1cc([C@@H](C)N(CCCC(F)(F)c2ccccc2)C(=O)NC2(C(=O)O)CCC2)cc(OCC)c1C1CC1 [Example 4-51]
42 | 1.88 | COc1cc(C(C)N(CCOCc2ccccc2)C(=O)NC2(C(=O)O)CCC2)c(C)c(OC)c1C1CC1 (stereo not drawn) [Example 5-135]
43 | 1.51 | CCNc1cc([C@@H](C)N(CCCCc2ccccc2)C(=O)NC2(C(=O)O)CC(F)(F)C2)cc(OCC)c1C(C)=O [Example 5-108]
44 | 7.08 | CCOc1cc([C@@H](C)N(CCCCc2ccccc2)C(=O)NC2(c3nn[nH]n3)CC(F)(F)C2)c(Cl)c(OCC)c1C(C)O (stereo partly drawn) [Example 10-10]
45 | 25.2 | CCOc1cc(C(C)N(CCCc2cccc(F)c2)C(=O)NC2(C(=O)O)CC(F)(F)C2)cc(OCC)c1C (stereo not drawn) [Example 4-7]
46 | 3.22 | CCOc1c(C(C)=O)ccc([C@@H](C)N(CCO[C@H](C)c2ccccc2)C(=O)NC2(C(=O)O)CCC2)c1C [Example 4-148]
47 | 143 | COc1cc(C(C)N(CCCCc2ccccc2)C(=O)NC2(C(=O)O)CC(F)(F)C2)cnc1C#N (stereo not drawn) [Example 5-90]
48 | 3.27 | CCOc1c(C2CC2)ccc([C@@H](C)N(CCO[C@H](C)c2cccc(Cl)c2)C(=O)NC2(C(=O)O)CC(F)(F)C2)c1C [Example 4-181]
49 | 3.47 | CCOc1cc([C@@H](C)N(CCO[C@@H](C)c2ccccc2Cl)C(=O)NC2(C(=O)O)CC(F)(F)C2)c(Cl)c(OCC)c1C(C)=O [Example 4-175]
50 | 10.9 | CCOC1CC(NC(=O)N(CCOCc2ccccc2)[C@H](C)c2cc(OC)c(C(C)=O)c(OC)c2)(C(=O)O)C1 (stereo partly drawn) [Example 5-125]
51 | 272 | CCOc1cc(C(C)N(CCO[C@@H](C)c2ccccc2)C(=O)NC2(C(=O)OC)CC(OCC)C2)c(Cl)c(OCC)c1C(C)=O (stereo partly drawn) [Example 6-5]
52 | 30.3 | COc1cc([C@@H](C)N(CCO[C@@H](C)c2ccccc2)C(=O)NC2(C(=O)O)CC(OC)C2)cc(OC)c1C(C)=O (stereo partly drawn) [Example 5-122]
53 | 52.1 | CCOc1cc(C(C)N(CCCCc2ccccc2)C(=O)NC2(P(=O)(O)O)CCCC2)cc(OCC)c1C (single isomer, unassigned) [Example 8-1, [1-({[1-(3,5-Diethoxy-4-Methylphenyl)Ethyl](4-Phenylbutyl) Carbamoyl}Amino)Cyclopentyl]Phosphonic Acid]
54 | 5.3 | CCOc1cc([C@@H](C)N(CCCC(F)(F)c2ccccc2)C(=O)N[C@]2(C(=O)O)C[C@@H](OC)C2)cc(OCC)c1C(C)=O [Example 4-65]
